Results on one compound are retold here after patent US20200345733A1, “Microbicidal Pyrimidine or Triazine Containing Compounds” (Janssen Sciences Ireland UC, priority 2002, published 2020).

Test [1] addresses HIV-1 reverse transcriptase (HIV-1 RT) (Human immunodeficiency virus type 1 group M subtype B, UniProt P04585). As to the kind of experiment: Steady state kinetics of RNA-dependent DNA polymerization by HIV-1 RT. Type of test: biochemical. How it is done:
In a first experiment, the reaction velocity was determined in the presence of different concentrations of compound B and different concentrations of dGTP while the concentration of the p(rC)p(dG) complex was constant.
In a second experimental the reaction velocity was determined in the presence of different concentrations of compound B and different concentrations of p(rC)p(dG) while the concentration of the substrate was constant.

For test [2], the system named is HTLV-IIIb infected CEM T cells. As to the kind of experiment: Antiviral activity in HTLV-IIIB infected CEM T cells (syncytium formation). It is filed as cell-based, HIV. The following applies: Human immunodeficiency virus 1, T-cell, continuous treatment, 50% inhibition of syncytium formation in CEM T cells. How it is done:
For experiments with CEM T cells, we used the lymphotropic SI/X4 HIV strain HTLV-IIIB, originally obtained from R. C. Gallo and M. Popovic (NIH, Bethesda, Md.). For experiments with monocyte-derived dendritic cells (MO-DC), the monotropic NSI/R5 HIV strain Ba-L, kindly provided by the NIH AIDS Research and Reference Reagent Program (Rockville, Md) was used. Ba-L stocks were grown and tittered on PHA/IL-2-stimulated peripheral blood mononuclear cells (PBMC) in complete medium, containing RPMI-1640 (Bio-Whittaker, Verviers, Belgium) and 10% bovine calf serum (Hyclone, Utah, US) (Peden K. Virological and Molecular Genetic Techniques for Studies of Established HIV Isolates. 1995, 21-45). The supernatant of these cultures were directly used as cell-free virus to infect MO-DC. To prepare cell-associated HIV Ba-L, non-stimulated PBMC (2×10^6 cells/ml) were incubated overnight with 10^−2 MOI (=multiplicity of infection) of HIV Ba-L in complete medium. Afterwards, cells were extensively washed, frozen in liquid nitrogen and thawed on the day of infection.
As a reference system, CEM T cells (obtained from the American Type culture Collection in Rockville, Md.) were used under previously standardized conditions (Balzarini J, et al. AIDS Res Hum Retroviruses 10 Apr. 2000, 16: 517-528). […]

`Cc1cc(C)c(Nc2ccnc(Nc3ccc(C#N)cc3)n2)c(C)c1` [compound B, 4-[[4-[(2,4,6-trimethylphenyl)amino]-2-pyrimidinyl]amino]benzonitrile]: the “Nature of binding to HIV-1 RT” value in test [1] (against dGTP) and in test [1] (against p(rC)p(dG)) was “non-competitive” in each case. For the same compound, the Ki – broadly, the equilibrium dissociation constant of an inhibitor or competing ligand from its target – in test [1] (against dGTP, p(rC)p(dG) constant) is 33 nM; in test [1] (against p(rC)p(dG), substrate constant), 28 nM. Further, the Km (in general, the concentration of substrate that gives half-maximal velocity) turned out to be 2.51 µM in test [1] (dGTP varied, p(rC)p(dG) constant (Km of the substrate)) and 10.3 µM in test [1] (p(rC)p(dG) varied, substrate constant (Km of primer/template)). Besides, the EC50 (in general, the concentration giving half of the maximal effect) in test [2] was 1 nM.
